From patent EP1254251B1, “NEUROSTEROIDS AS MARKERS FOR ALZHEIMER'S DISEASE” (Georgetown University, priority 2000, dated 2001) come the findings set out here.

One test has as its system MGM-1 human glioma cells. The experiment in a line: ROS measurement by 2,7-DCF fluorescence. The test is classed as cell-based. Particulars: MGM-1, 50 mM Aβ, vs control, p < 0.01. The method, then: β-Amyloid Regulation of the Alternative Pathway: MGM-1 cells were plated on 96 well (~5,000 cells/well, for ROS measurements) or 24 well (~15,000 cells/well, for D measurements) plates (Corning Costar, Acton, MA). At the same time, 1 mg Ab (Ab (1-42), AnaSpec Inc., San Jose, CA) was dissolved in 0.5 ml serum-free media and incubated at 4C for aggregation. 24 hours later, cells were incubated in DMEM with 10% fetal bovine serum and […] or […] and 10 mM Vitamin E (Sigma, St. Louis, MO). Control samples were incubated in DMEM with 10% FBS. Cells were incubated at 37C and 6% CO2 for at least 12 hours and processed for ROS generation (see below) or D synthesis as described above for the alternative experiments.
Treatment media was removed and the cells were washed with PBS. The fluorescent probe 2,7- dichlorofluorescin diacetate (2,7-DCF, Molecular Probes, Inc., Eugene, OR) was used to measure levels of oxidative stress (48). Cells were incubated with […] 2,7-DCF, fluorescence was measured at 485nm/535nm using the Victor^2 Multilabel Counter (EG&G Wallac, Gaithersburg, MD) and values of cellular fluorescence were obtained.

For the next test, the system named is MGM-1. The experiment in a line: Alternative pathway D synthesis in cells treated with FeSO4, or with Ab with or without Vitamin E (TLC, RIA). Type of test: cell-based, human. The conditions noted are these: MGM-1, 50 mM Aβ, vs control, p < 0.01. The method, then: Alternative Pathway: To determine the amount ofD synthesized by the alternative pathway cells were treated as previously described. (15). In brief, cells were washed and oligodendrocytes and astrocytes were incubated with increasing concentrations of FeSO4 in serum free media, with and without SU 10603 (10 mM); neurons were incubated in serum free media containing 5 mM P plus FeSO4 with and without 10 mM SU 10603. After two hours, cells and media were homogenized and extracted as described above. Extracts were run on C 18 TLC plates (Whatman, Clifton, NJ) with a mobile phase of 95% methanol (v/v); radiolabeled standards for P, progesterone, and D were run on each plate, and appropriate steroid fractions were collected for each sample. TLC fractions were extracted with 2 ml diethyl ether (Fluka, New York) and evaporated. TLC extracts were assayed by specific radioimmunoassay (RIA). […]
RIA using antibodies specific for each steroid (ICN Pharmaceuticals, Costa Mesa, CA Mesa) was used to measure P, progesterone and D levels. The data were analyzed using the IBM-PC RIA Data Reduction Program (version 4.1) from Jaffe and Associates (Silver Spring, MD). Levels of β-amyloid species in AD and control brain samples were analyzed using 4G8 (Senetex PLC, Napa, CA), a monoclonal antibody to β-amyloid peptide that recognizes amino acids 17-24. […]

“Ab: Ab (1-42), AnaSpec Inc.; β-amyloid, a component of Alzheimer's disease plaques”: the “2,7-DCF fluorescence (ROS)” value with MGM-1 human glioma cells is on record as “significant increase”. The D levels entry in the test with MGM-1 is “increased D levels significantly”.
